# Data from patent US8367620B2, “Peptidic growth hormone secretagogues analog compounds and preparations thereof” (Centro de Ingenieria Genetica y Biotecnologia, priority 2006, dated 2013).
# pIC50: −log10 of the molar value.
# Test system: primary cultures of granular cerebellum cells
# Assay: not given
# Format: cell-based, Wistar rats
# Conditions: 500 μM hydrogen peroxide, rat cerebellum granular cells; read-out: IC50 during the induced neuronal damage by Hydrogen Peroxide addition to a primary culture of neurons
# Protocol: Primary cultures of granular cerebellum cells were obtained from 7-9 days Wistar rats. After a rapid dissection, rat cerebellums were submerged in a cold solution and meningeal membranes were removed, each organ was transferred to a 2-3 ml fresh medium solution and finely sliced. Cells were dissociated using a Pasteur pipette and filtered through a nylon […] membrane (Falcon, Franklin Lakes, N.J.). The number of viable cells was determined by cell counting in a hematocytometer with tripan blue as a marker. Cells were cultured on polylysine covered 96 well plates at a density of 6250 cells in […] final volume. Cultures were kept at 37° C. in 5%. CO2 after 24 h, 10 μM of cytosine arabinofuranose (AraC; Sigma) was added to inhibit the proliferation of non-neuronal cells. The capacity of neural damage prevention was tested adding 500 μM hydrogen peroxide in different concentrations of peptidic GHS analog compounds, Cell survival was determined using the Promega non-radioactive cytotoxicity proliferation assay, Cell Titer 96 (Promega).
row,Sequence,pIC50
1,"ALDFKPNIP [Compound A225, L-amino acid peptide with internal side-chain cycle, SEC; ID NO: 5]",5.40
2,GDAGAKLLSSR [Compound A234],5.43
3,"GEGYKLDERSQ [Compound A236, L-amino acid peptide with internal side-chain cycle, SEC; ID NO: 16]",5.48
4,"GGEAGKLCPPRY [Compound A237, L-amino acid peptide with internal side-chain cycle, SEC; ID NO: 17]",5.60

# Test system: tilapia Oreochromis sp. larvae
# Assay: Growth stimulation of tilapia larvae by immersion
# Format: in vivo
# Conditions: immersion 100 μg/L, one hour twice a week, three weeks
# Protocol: (§1) Growth stimulation experiments on tilapia Oreochromis sp. larvae were performed evaluating groups of 100 larvae with 0.01 g average, using the peptidic GHS analogs, in a 100 μg/L concentration, twice a week using an immersion time of one hour.
row,Sequence,"Weight Inc. (%), control group growing = 100%"
1,"ALDFKPNIP [Compound A225, L-amino acid peptide with internal side-chain cycle, SEC; ID NO: 5]",98.0%
2,GDAGAKLLSSR [Compound A234],120.6%
3,"GEGYKLDERSQ [Compound A236, L-amino acid peptide with internal side-chain cycle, SEC; ID NO: 16]",105.0%
4,"GGEAGKLCPPRY [Compound A237, L-amino acid peptide with internal side-chain cycle, SEC; ID NO: 17]",109.9%

# Test system: tilapias
# Assay: Growth acceleration on juvenile tilapias treated intraperitoneally
# Format: in vivo
# Conditions: juvenile tilapia, ip 0.1 μg/g twice a week, three weeks
# Protocol: The compounds were dissolved in a sodium phosphate (PBS) buffer solution and injected twice a week, during three weeks at 0.1 μg/g of humid fish weight (gbw). Compounds were applied individually to a group of 10 male tilapias with an average weight of 60.41±10.36 g and a control group with an average weight of 60.58±19.67 g was receiving PBS only as a control, measuring the average weight every week, all animals in the experiment were labelled with microchips (Stoelting Co. Wood Dale, USA.). for proper identification.
row,Sequence,"Weight Inc. (%), control group growing = 100%"
1,"ALDFKPNIP [Compound A225, L-amino acid peptide with internal side-chain cycle, SEC; ID NO: 5]",120.0%
2,GDAGAKLLSSR [Compound A234],110.6%
3,"GEGYKLDERSQ [Compound A236, L-amino acid peptide with internal side-chain cycle, SEC; ID NO: 16]",99.0%
4,"GGEAGKLCPPRY [Compound A237, L-amino acid peptide with internal side-chain cycle, SEC; ID NO: 17]",100.0%

# Test system: IGF-I mRNA
# Assay: IGF-I mRNA in liver and GH level of intraperitoneally injected tilapias
# Format: in vivo, tilapia
# Conditions: liver of intraperitoneally injected tilapias
# Protocol: IGF-I mRNa was determined in the liver of intraperitoneally injected tilapias monitoring also the GH level time course, showing the peptidic GHS analog compounds as able to stimulate in fish the GH levels in the bloodstream and at incrementing the IGF-I mRNA levels after the injection of the compounds as shown in table 4.
row,Sequence,Normalized IGF-I mRNA levels to a non related synthetic peptide control group
1,"ALDFKPNIP [Compound A225, L-amino acid peptide with internal side-chain cycle, SEC; ID NO: 5]",1.38
2,GDAGAKLLSSR [Compound A234],1.17
3,"GEGYKLDERSQ [Compound A236, L-amino acid peptide with internal side-chain cycle, SEC; ID NO: 16]",1.13
4,"GGEAGKLCPPRY [Compound A237, L-amino acid peptide with internal side-chain cycle, SEC; ID NO: 17]",1.201

# Test system: PC12 cells
# Assay: not given
# Format: cell-based
# Conditions: differentiated PC12 cells, 72 h incubation, MTT; read-out: IC50 during the NGF deprivation induced neuronal death
# Protocol: PC12 cells were stored in 75 cm^2 culture flasks on DMEM containing 5% bovine foetal serum and 10% horse serum, with 50 μg/ml gentamicin. Cells were incubated at 37° C. in 5% CO2. To induce differentiation cells were transferred at a density of 1×10^4 to polylysine covered 96 well plates in NGF supplemented DMEM media for 7 days, with medium replacement every 2-3 days. After differentiation cells were incubated with peptidic GHS analog compounds, at different concentrations for 72 h. Cell survival and proliferation was determined using the Promega non-radioactive cytotoxicity proliferation assay, Cell Titer 96, based in the conversion of 3-(4,5-dimethylthiazole-2-yl)-2,5-diphenyltetrazolium bromide (MTT) in to a spectrophotometrically detectable product. After deprivation of NGF medium is removed and 15 μl of the DMEM dissolved dye is added, after 4 hours of 37° C. incubation 100 μl of the stopping solution is added and absorbance is measured at 570 nm
row,Sequence,pIC50
1,"ALDFKPNIP [Compound A225, L-amino acid peptide with internal side-chain cycle, SEC; ID NO: 5]",5.39
2,GDAGAKLLSSR [Compound A234],5.23
3,"GEGYKLDERSQ [Compound A236, L-amino acid peptide with internal side-chain cycle, SEC; ID NO: 16]",5.52
4,"GGEAGKLCPPRY [Compound A237, L-amino acid peptide with internal side-chain cycle, SEC; ID NO: 17]",5.48

# Test system: Litopenaeus vanamei post-larvae
# Assay: Growth of shrimp post-larvae fed Artemia-bioencapsulated compounds
# Format: in vivo
# Conditions: Artemia bioencapsulated (10 mh/L, one hour), fed four times a day for one month
# Protocol: The peptidic GHS analogs were bioencapsulated in Artemia to be fed to Litopenaeus vanamei post-larvae. For the encapsulation the compounds were added in a 10 mh/L left for an hour, harvested and washed. The animals were fed four times a day for one month while the control group was fed with BSA encapsulated Artemia The effect was measured with an optical micrometer and weighing the animals in a 0.1 mg precision scale.
row,Sequence,"Size Inc. (%), control group growing = 100%"
1,"ALDFKPNIP [Compound A225, L-amino acid peptide with internal side-chain cycle, SEC; ID NO: 5]",130.0%
2,GDAGAKLLSSR [Compound A234],135.0%
3,"GEGYKLDERSQ [Compound A236, L-amino acid peptide with internal side-chain cycle, SEC; ID NO: 16]",138.0%
4,"GGEAGKLCPPRY [Compound A237, L-amino acid peptide with internal side-chain cycle, SEC; ID NO: 17]",136.0%

# Test system: Litopenaeus vanamei
# Assay: Growing of shrimp larvae by dipping in solution of the compounds
# Format: in vivo
# Conditions: four dips of one hour every three days, 0.1 g/L
# Protocol: Shrimp larvae were subjected two four dips, for one hour every three days with different peptidic GHS analogs at 0.1 g/L. The control group was subjected to the same frequency of dipping with 1 mg/L BSA.
Sequence,"Size Inc. (%), control group growing = 100%","Weight Inc. (%), control group growing = 100%"
"ALDFKPNIP [Compound A225, L-amino acid peptide with internal side-chain cycle, SEC; ID NO: 5]",112.6%,121.0%
GDAGAKLLSSR [Compound A234],114.2%,123.6%
"GEGYKLDERSQ [Compound A236, L-amino acid peptide with internal side-chain cycle, SEC; ID NO: 16]",112.0%,121.0%
"GGEAGKLCPPRY [Compound A237, L-amino acid peptide with internal side-chain cycle, SEC; ID NO: 17]",116.2%,127.0%

# Test system: lysozyme
# Assay: Lysozyme levels in tilapia larvae treated by immersion
# Format: in vivo, Oreochromis sp.
# Conditions: immersion 100 μg/L
# Protocol: as §1
# During this experiment lysozyme levels were also monitored and an increase of this immunity marker was obtained in the treated animals as shown in table 8.
row,Sequence,Lysozyme levels of the treated animals relative to the control group
1,"ALDFKPNIP [Compound A225, L-amino acid peptide with internal side-chain cycle, SEC; ID NO: 5]",1.43
2,GDAGAKLLSSR [Compound A234],2.77
3,"GEGYKLDERSQ [Compound A236, L-amino acid peptide with internal side-chain cycle, SEC; ID NO: 16]",1.42
4,"GGEAGKLCPPRY [Compound A237, L-amino acid peptide with internal side-chain cycle, SEC; ID NO: 17]",1.01

# Test system: Post-larvae of Litopenaeus vanamei
# Assay: Growth stimulation in shrimps by dietary supplementation
# Format: in vivo
# Conditions: compound at 1% in post-larvae crustacean diet
# Protocol: The peptidic GHS analogs were included at 1% in a post-larvae crustacean diet. Post-larvae of Litopenaeus vanamei were fed with the aforementioned diet in parallel with a control group with 1% BSA addition. The effect was measured with an optical micrometer and weighing the animals in a 0.1 mg precision scale.
row,Sequence,"Size Inc. (%), control group growing = 100%"
1,"ALDFKPNIP [Compound A225, L-amino acid peptide with internal side-chain cycle, SEC; ID NO: 5]",130.0%
2,GDAGAKLLSSR [Compound A234],138.6%
3,"GEGYKLDERSQ [Compound A236, L-amino acid peptide with internal side-chain cycle, SEC; ID NO: 16]",137.0%
4,"GGEAGKLCPPRY [Compound A237, L-amino acid peptide with internal side-chain cycle, SEC; ID NO: 17]",132.0%
